In ChEMBL document CHEMBL3991601, “The target landscape of clinical kinase drugs” (Science, 2017):
The source made the active and inactive calls.

The compounds below were run against Activin receptor type-2B (Homo sapiens, UniProt Q13705). Conditions: not given.
Further: in the data inactive means no Kd found up to 30 µM.

Activin receptor type-2B, sequence (Q13705 whole entry): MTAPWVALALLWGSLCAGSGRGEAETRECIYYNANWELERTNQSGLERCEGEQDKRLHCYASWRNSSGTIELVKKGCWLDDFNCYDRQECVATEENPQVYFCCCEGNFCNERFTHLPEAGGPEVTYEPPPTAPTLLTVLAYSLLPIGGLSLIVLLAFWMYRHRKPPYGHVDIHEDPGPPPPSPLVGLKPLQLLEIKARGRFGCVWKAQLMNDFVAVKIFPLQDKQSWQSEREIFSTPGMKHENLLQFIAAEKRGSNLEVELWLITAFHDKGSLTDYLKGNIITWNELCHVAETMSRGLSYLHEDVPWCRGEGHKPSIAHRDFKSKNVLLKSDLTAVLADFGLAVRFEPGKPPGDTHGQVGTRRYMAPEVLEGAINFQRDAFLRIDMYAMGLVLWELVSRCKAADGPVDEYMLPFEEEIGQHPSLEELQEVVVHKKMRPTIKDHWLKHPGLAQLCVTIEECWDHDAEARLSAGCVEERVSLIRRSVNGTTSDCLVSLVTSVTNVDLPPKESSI

| SMILES | Kd |
| --- | --- |
| O=c1sn(-c2cccc3ccccc23)c(=O)n1Cc1ccccc1 [TIDEGLUSIB] | > 30 µM (inactive) |
| COc1cc2nccc(Oc3ccc(NC(=O)Nc4cc(C)on4)c(Cl)c3)c2cc1OC [TIVOZANIB] | > 30 µM (inactive) |
| CC(=O)Nc1cccc(-n2c(=O)n(C3CC3)c(=O)c3c(Nc4ccc(I)cc4F)n(C)c(=O)c(C)c32)c1 [TRAMETINIB] | > 30 µM (inactive) |

These compounds were tested against T1, Peroxisomal acyl-coenzyme A oxidase 3 (Homo sapiens, UniProt O15254). Conditions: not given.
T1 sequence (O15254 whole entry): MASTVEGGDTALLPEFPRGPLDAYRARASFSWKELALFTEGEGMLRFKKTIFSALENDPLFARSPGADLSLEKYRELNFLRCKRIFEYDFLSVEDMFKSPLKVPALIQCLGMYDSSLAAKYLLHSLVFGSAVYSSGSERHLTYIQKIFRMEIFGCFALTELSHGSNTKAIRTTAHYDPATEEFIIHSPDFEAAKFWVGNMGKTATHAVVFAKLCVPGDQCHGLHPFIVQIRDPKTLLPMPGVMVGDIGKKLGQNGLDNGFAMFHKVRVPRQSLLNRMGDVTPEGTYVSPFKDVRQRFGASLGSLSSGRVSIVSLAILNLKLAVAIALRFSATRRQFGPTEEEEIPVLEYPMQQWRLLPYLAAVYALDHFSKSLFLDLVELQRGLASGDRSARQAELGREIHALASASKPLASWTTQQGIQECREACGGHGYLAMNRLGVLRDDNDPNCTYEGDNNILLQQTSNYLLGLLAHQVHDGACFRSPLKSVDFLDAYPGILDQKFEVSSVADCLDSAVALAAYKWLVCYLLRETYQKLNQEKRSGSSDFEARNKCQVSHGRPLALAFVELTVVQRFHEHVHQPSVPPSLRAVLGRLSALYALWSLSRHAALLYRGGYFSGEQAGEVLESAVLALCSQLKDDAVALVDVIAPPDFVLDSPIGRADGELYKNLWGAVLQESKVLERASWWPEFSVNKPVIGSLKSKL

| SMILES | Kd |
| --- | --- |
| O=c1sn(-c2cccc3ccccc23)c(=O)n1Cc1ccccc1 [TIDEGLUSIB] | > 30 µM (inactive) |
| COc1cc2nccc(Oc3ccc(NC(=O)Nc4cc(C)on4)c(Cl)c3)c2cc1OC [TIVOZANIB] | > 30 µM (inactive) |
| CC(=O)Nc1cccc(-n2c(=O)n(C3CC3)c(=O)c3c(Nc4ccc(I)cc4F)n(C)c(=O)c(C)c32)c1 [TRAMETINIB] | > 30 µM (inactive) |

Each compound was assayed against Tyrosine-protein kinase SYK (Homo sapiens, UniProt P43405). Conditions: not given.

| SMILES | Kd |
| --- | --- |
| O=c1sn(-c2cccc3ccccc23)c(=O)n1Cc1ccccc1 [TIDEGLUSIB] | > 30 µM (inactive) |
| COc1cc2nccc(Oc3ccc(NC(=O)Nc4cc(C)on4)c(Cl)c3)c2cc1OC [TIVOZANIB] | > 30 µM (inactive) |
| CC(=O)Nc1cccc(-n2c(=O)n(C3CC3)c(=O)c3c(Nc4ccc(I)cc4F)n(C)c(=O)c(C)c32)c1 [TRAMETINIB] | > 30 µM (inactive) |

What follows are compounds tested against Serine/threonine-protein kinase MRCK beta (Homo sapiens, UniProt Q9Y5S2). Conditions: not given.
Serine/threonine-protein kinase MRCK beta, sequence (Q9Y5S2 whole entry): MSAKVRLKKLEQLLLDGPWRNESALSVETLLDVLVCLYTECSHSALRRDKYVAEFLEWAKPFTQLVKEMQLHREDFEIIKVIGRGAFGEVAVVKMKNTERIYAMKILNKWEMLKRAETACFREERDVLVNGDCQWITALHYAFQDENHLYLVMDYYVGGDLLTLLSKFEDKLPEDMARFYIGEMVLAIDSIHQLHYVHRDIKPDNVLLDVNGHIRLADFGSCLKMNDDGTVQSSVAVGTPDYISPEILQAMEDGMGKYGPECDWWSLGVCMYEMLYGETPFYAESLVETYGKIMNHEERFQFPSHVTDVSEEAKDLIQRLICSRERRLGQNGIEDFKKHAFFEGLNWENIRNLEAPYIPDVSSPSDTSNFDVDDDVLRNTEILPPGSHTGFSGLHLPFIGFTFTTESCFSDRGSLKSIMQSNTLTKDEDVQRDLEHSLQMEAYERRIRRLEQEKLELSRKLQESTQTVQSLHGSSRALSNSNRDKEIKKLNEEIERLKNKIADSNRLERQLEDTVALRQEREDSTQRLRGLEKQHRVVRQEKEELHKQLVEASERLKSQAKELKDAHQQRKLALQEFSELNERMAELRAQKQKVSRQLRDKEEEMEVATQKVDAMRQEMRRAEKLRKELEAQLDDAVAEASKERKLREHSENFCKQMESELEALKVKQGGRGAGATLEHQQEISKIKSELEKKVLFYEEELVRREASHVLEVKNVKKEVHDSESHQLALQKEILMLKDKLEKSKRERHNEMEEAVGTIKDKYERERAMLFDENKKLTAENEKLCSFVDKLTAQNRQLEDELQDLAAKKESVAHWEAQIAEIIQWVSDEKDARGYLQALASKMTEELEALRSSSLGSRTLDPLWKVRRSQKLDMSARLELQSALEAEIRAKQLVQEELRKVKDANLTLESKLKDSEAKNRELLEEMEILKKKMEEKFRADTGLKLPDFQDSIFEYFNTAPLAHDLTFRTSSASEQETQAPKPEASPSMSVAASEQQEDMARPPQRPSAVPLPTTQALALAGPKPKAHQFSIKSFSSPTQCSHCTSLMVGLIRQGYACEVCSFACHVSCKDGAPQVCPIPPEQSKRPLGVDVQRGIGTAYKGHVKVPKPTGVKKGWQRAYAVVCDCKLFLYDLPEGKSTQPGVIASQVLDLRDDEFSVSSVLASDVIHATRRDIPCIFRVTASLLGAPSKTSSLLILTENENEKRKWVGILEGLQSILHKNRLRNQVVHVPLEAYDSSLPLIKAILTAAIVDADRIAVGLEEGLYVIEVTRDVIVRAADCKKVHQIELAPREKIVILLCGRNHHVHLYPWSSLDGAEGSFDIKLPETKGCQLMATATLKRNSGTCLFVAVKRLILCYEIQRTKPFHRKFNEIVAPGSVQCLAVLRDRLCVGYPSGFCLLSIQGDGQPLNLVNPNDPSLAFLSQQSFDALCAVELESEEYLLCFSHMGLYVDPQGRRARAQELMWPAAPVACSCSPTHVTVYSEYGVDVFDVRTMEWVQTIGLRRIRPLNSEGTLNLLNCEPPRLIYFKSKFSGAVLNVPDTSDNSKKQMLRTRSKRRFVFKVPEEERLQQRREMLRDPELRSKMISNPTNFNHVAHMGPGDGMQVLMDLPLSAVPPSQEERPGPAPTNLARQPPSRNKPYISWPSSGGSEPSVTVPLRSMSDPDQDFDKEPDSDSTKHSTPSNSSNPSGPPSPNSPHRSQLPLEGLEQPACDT

| SMILES | Kd |
| --- | --- |
| O=c1sn(-c2cccc3ccccc23)c(=O)n1Cc1ccccc1 [TIDEGLUSIB] | > 30 µM (inactive) |
| COc1cc2nccc(Oc3ccc(NC(=O)Nc4cc(C)on4)c(Cl)c3)c2cc1OC [TIVOZANIB] | > 30 µM (inactive) |
| CC(=O)Nc1cccc(-n2c(=O)n(C3CC3)c(=O)c3c(Nc4ccc(I)cc4F)n(C)c(=O)c(C)c32)c1 [TRAMETINIB] | > 30 µM (inactive) |

The compounds below were run against Cyclin-dependent kinase 4 (Homo sapiens, UniProt P11802). Conditions: not given.
Cyclin-dependent kinase 4, sequence (P11802 whole entry): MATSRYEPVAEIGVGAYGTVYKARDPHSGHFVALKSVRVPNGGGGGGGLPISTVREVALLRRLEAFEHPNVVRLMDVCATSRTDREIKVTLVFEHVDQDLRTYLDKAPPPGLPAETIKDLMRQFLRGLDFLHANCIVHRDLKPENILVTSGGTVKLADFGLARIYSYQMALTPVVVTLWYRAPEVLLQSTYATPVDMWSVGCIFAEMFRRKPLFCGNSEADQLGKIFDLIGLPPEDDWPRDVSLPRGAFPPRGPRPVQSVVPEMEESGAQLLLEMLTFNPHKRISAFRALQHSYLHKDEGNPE

| SMILES | Kd |
| --- | --- |
| O=c1sn(-c2cccc3ccccc23)c(=O)n1Cc1ccccc1 [TIDEGLUSIB] | > 30 µM (inactive) |
| COc1cc2nccc(Oc3ccc(NC(=O)Nc4cc(C)on4)c(Cl)c3)c2cc1OC [TIVOZANIB] | > 30 µM (inactive) |
| CC(=O)Nc1cccc(-n2c(=O)n(C3CC3)c(=O)c3c(Nc4ccc(I)cc4F)n(C)c(=O)c(C)c32)c1 [TRAMETINIB] | > 30 µM (inactive) |

Each compound was assayed against T2, Glycogen phosphorylase, liver form (Homo sapiens, UniProt P06737). Conditions: read-out: Kd apparent.
T2 sequence (P06737 whole entry): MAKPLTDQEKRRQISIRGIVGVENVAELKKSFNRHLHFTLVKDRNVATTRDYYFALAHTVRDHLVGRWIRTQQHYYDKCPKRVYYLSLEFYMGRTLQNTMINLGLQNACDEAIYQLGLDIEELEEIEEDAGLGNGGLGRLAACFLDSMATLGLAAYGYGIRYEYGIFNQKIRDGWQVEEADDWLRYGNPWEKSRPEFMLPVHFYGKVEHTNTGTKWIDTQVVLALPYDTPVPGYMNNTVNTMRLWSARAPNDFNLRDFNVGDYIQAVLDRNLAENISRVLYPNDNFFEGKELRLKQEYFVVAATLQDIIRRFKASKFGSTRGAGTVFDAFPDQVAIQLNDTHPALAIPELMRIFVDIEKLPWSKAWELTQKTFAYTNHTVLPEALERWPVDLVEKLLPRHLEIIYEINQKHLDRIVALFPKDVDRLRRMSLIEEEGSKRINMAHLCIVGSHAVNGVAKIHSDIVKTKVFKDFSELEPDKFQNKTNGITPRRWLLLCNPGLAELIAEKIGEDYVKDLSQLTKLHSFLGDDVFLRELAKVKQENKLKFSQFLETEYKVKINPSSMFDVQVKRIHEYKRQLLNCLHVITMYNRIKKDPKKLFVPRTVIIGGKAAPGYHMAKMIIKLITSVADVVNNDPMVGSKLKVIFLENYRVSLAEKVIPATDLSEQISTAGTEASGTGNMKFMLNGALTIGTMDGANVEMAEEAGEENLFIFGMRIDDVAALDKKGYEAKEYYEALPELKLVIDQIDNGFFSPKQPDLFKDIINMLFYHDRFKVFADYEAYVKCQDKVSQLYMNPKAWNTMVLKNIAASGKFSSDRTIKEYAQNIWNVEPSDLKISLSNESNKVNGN
Assay type: subcellular, K-562, COLO 205, SK-N-BE(2) and MV-4-11, Cell lysate

| SMILES | Kd |
| --- | --- |
| O=c1sn(-c2cccc3ccccc23)c(=O)n1Cc1ccccc1 [TIDEGLUSIB] | > 30 µM (inactive) |
| COc1cc2nccc(Oc3ccc(NC(=O)Nc4cc(C)on4)c(Cl)c3)c2cc1OC [TIVOZANIB] | > 30 µM (inactive) |
| CC(=O)Nc1cccc(-n2c(=O)n(C3CC3)c(=O)c3c(Nc4ccc(I)cc4F)n(C)c(=O)c(C)c32)c1 [TRAMETINIB] | > 30 µM (inactive) |

The compounds below were run against Mitogen-activated protein kinase 8 (Homo sapiens, UniProt P45983). Conditions: not given.
Mitogen-activated protein kinase 8, sequence (P45983 whole entry): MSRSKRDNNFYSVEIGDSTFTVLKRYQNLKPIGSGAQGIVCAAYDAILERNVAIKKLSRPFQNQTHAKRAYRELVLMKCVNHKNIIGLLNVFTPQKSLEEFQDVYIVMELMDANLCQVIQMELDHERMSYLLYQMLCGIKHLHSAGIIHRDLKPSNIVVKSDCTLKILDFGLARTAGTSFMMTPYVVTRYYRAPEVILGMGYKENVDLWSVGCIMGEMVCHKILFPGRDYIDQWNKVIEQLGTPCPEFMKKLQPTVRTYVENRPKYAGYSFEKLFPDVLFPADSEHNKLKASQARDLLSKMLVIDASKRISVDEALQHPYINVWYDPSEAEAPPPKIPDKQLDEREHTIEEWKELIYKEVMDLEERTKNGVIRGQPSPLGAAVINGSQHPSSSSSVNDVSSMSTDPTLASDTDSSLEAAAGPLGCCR

| SMILES | Kd |
| --- | --- |
| O=c1sn(-c2cccc3ccccc23)c(=O)n1Cc1ccccc1 [TIDEGLUSIB] | > 30 µM (inactive) |
| COc1cc2nccc(Oc3ccc(NC(=O)Nc4cc(C)on4)c(Cl)c3)c2cc1OC [TIVOZANIB] | > 30 µM (inactive) |
| CC(=O)Nc1cccc(-n2c(=O)n(C3CC3)c(=O)c3c(Nc4ccc(I)cc4F)n(C)c(=O)c(C)c32)c1 [TRAMETINIB] | > 30 µM (inactive) |

These compounds were tested against T3, Delta(24)-sterol reductase (Homo sapiens, UniProt Q15392). Conditions: not given.
T3 sequence (Q15392 whole entry): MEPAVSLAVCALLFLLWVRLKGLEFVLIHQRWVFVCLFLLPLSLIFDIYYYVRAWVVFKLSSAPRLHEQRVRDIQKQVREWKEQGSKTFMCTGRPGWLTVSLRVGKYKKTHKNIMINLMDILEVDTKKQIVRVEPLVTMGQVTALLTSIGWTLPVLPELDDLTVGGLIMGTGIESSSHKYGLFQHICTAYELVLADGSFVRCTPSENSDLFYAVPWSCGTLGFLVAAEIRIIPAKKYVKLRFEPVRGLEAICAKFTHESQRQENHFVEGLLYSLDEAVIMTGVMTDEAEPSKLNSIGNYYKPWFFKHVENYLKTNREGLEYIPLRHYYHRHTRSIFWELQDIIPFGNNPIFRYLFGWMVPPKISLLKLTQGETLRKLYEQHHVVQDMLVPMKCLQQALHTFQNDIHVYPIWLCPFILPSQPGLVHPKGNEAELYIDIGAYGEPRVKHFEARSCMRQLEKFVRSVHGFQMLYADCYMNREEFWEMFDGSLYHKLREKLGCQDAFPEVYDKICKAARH

| SMILES | Kd |
| --- | --- |
| O=c1sn(-c2cccc3ccccc23)c(=O)n1Cc1ccccc1 [TIDEGLUSIB] | > 30 µM (inactive) |
| COc1cc2nccc(Oc3ccc(NC(=O)Nc4cc(C)on4)c(Cl)c3)c2cc1OC [TIVOZANIB] | > 30 µM (inactive) |
| CC(=O)Nc1cccc(-n2c(=O)n(C3CC3)c(=O)c3c(Nc4ccc(I)cc4F)n(C)c(=O)c(C)c32)c1 [TRAMETINIB] | > 30 µM (inactive) |

Each compound was assayed against cAMP-dependent protein kinase catalytic subunit beta (Homo sapiens, UniProt P22694). Conditions: not given.

| SMILES | Kd |
| --- | --- |
| O=c1sn(-c2cccc3ccccc23)c(=O)n1Cc1ccccc1 [TIDEGLUSIB] | > 30 µM (inactive) |
| COc1cc2nccc(Oc3ccc(NC(=O)Nc4cc(C)on4)c(Cl)c3)c2cc1OC [TIVOZANIB] | > 30 µM (inactive) |
| CC(=O)Nc1cccc(-n2c(=O)n(C3CC3)c(=O)c3c(Nc4ccc(I)cc4F)n(C)c(=O)c(C)c32)c1 [TRAMETINIB] | > 30 µM (inactive) |

What follows are compounds tested against Tyrosine-protein kinase Fyn (Homo sapiens, UniProt P06241). Conditions: not given.
Tyrosine-protein kinase Fyn, sequence (P06241 whole entry): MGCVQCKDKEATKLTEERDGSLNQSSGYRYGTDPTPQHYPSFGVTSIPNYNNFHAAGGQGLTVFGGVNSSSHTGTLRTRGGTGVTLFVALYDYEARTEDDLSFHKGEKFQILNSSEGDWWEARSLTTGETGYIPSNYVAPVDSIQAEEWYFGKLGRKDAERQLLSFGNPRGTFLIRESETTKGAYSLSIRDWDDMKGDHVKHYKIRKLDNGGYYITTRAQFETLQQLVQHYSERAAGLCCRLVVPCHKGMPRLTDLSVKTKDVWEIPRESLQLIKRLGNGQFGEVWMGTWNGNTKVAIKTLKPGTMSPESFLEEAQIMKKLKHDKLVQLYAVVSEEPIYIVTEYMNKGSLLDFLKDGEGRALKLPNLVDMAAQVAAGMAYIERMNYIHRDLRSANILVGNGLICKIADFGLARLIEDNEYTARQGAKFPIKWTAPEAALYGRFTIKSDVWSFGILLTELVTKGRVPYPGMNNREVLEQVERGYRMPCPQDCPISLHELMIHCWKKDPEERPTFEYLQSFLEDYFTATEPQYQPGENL

| SMILES | Kd |
| --- | --- |
| O=c1sn(-c2cccc3ccccc23)c(=O)n1Cc1ccccc1 [TIDEGLUSIB] | > 30 µM (inactive) |
| COc1cc2nccc(Oc3ccc(NC(=O)Nc4cc(C)on4)c(Cl)c3)c2cc1OC [TIVOZANIB] | > 30 µM (inactive) |
| CC(=O)Nc1cccc(-n2c(=O)n(C3CC3)c(=O)c3c(Nc4ccc(I)cc4F)n(C)c(=O)c(C)c32)c1 [TRAMETINIB] | > 30 µM (inactive) |

These compounds were tested against T4, Succinate--CoA ligase [ADP-forming] subunit beta, mitochondrial (Homo sapiens, UniProt Q9P2R7). Conditions: not given.
T4 sequence (Q9P2R7 whole entry): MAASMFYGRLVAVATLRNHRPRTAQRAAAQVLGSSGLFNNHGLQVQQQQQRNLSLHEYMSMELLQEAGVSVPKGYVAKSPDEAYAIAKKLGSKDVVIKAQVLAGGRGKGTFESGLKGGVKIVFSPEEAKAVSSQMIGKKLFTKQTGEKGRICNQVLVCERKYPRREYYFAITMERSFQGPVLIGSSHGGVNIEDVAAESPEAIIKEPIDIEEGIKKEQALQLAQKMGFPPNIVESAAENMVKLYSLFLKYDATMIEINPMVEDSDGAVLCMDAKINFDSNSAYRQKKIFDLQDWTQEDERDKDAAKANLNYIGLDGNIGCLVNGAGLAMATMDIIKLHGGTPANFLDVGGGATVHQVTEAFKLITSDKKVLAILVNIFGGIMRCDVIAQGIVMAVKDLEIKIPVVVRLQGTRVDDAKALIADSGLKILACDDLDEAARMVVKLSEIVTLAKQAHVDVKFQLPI

| SMILES | Kd |
| --- | --- |
| O=c1sn(-c2cccc3ccccc23)c(=O)n1Cc1ccccc1 [TIDEGLUSIB] | > 30 µM (inactive) |
| COc1cc2nccc(Oc3ccc(NC(=O)Nc4cc(C)on4)c(Cl)c3)c2cc1OC [TIVOZANIB] | > 30 µM (inactive) |
| CC(=O)Nc1cccc(-n2c(=O)n(C3CC3)c(=O)c3c(Nc4ccc(I)cc4F)n(C)c(=O)c(C)c32)c1 [TRAMETINIB] | > 30 µM (inactive) |
